As a reminder, the IC50 is the concentration at which inhibition is half-maximal. Low readings indicate inhibition by little substance, high ones a need for much substance.

In this experiment the target is benzodiazepine binding site on GABAA receptors. Put plainly: In vitro inhibition of 3H-flunitrazepam (3H-FNM) binding. Also noted: species or system rat. Conditions: inhibition of specific binding of 3H-FNM (1 nM), cerebral cortex membranes from male Wistar rats, 40 min at 2° C. Here is the method: In Vitro Inhibition of ^3H-flunitrazepam (^3H-FNM) Binding
The GABA recognition site and the benzodiazepine modulatory unit can selectively be labelled with ^3H-flunitrazepam.
Preparations are performed at 0-4° C. unless otherwise indicated. Cerebral cortex from male Wistar rats (150-200 g) is homogenised for 5-10 sec in 20 ml Tris-HCl (30 mM, pH 7.4) using an Ultra-Turrax homogeniser. The suspension is centrifuged at 27,000×g for 15 min and the pellet is washed three times with buffer (centrifuged at 27,000×g for 10 min). The washed pellet is homogenized in 20 ml of buffer and incubated on a water bath (37° C.) for 30 min to remove endogenous GABA and then centrifuged for 10 min at 27,000×g. The pellet is then homogenized in buffer and centrifuged for 10 min at 27,000×g. The final pellet is resuspended in 30 ml buffer and the preparation is frozen and stored at −20° C.
The membrane preparation is thawed and centrifuged at 2° C. for 10 min at 27,000×g. The pellet is washed twice with 20 ml 50 mM Tris-citrate, pH 7.1 using an Ultra-Turrax homogeniser and centrifuged for 10 min at 27,000×g. The final pellet is resuspended in 50 mM Tris-citrate, pH 7.1 (500 ml buffer per g of original tissue), and then used for binding assays. Aliquots of 0.5 ml tissue are added to 25 μl of test solution and 25 μl of ^3H-FNM (1 nM, final concentration), mixed and incubated for 40 min at 2° C. Non-specific binding is determined using Clonazepam (1 μM, final concentration). After incubation the samples are added 5 ml of ice-cold buffer and poured directly onto Whatman GF/C glass fibre filters under suction and immediately washed with 5 ml ice-cold buffer. The amount of radioactivity on the filters is determined by conventional liquid scintillation counting. Specific binding is total binding minus non-specific binding.
25-75% inhibition of specific binding must be obtained, before calculation of an IC50.
The test value will be given as IC50 (the concentration (μM) of the test substance which inhibits the specific binding of ^3H-FNM by 50%). IC50=(applied test substance concentration, […]
Compound `CC(=O)NCc1ccc2c(c1)ncn2-c1cccc(-c2nccs2)c1` [N-[1-(3-Thiazol-2-yl-phenyl)-1H-benzoimidazol-5-ylmethyl]-acetamide] came in with an IC50 of 24 nM. On to `O=CNCc1ccc2c(c1)ncn2-c1cccc(-c2nccs2)c1` [N-{1-[3-(Thiazol-2-yl)-phenyl]-1H-benzoimidazol-5-ylmethyl}-formamide], for which the IC50 came to 4.8 nM. `NCc1ccc2c(c1)ncn2-c1cccc(-c2nccs2)c1` [C-[1-(3-Thiazol-2-yl-phenyl)-1H-benzoimidazol-5-yl]-methylamine] displayed an IC50 of 11 nM.

(Values after patent US7851490B2, “Benzimidazole derivatives and their use for modulating the GABAA receptor complex” (Neurosearch A/S, priority 2005, dated 2010).)
